Measured values: ChEMBL document CHEMBL3885861, “Open TG-GATES”

Organism: Rattus norvegicus
Test: Open TG-GATES - Regimen: Single
Format: toxicity, organism-based, Sprague-Dawley
Design: regimen Single, gender Male, age 6 weeks
Conditions: in vivo, po, 0 mg/kg, route gavage, dose level Control; for APTT / Bas / Eos / Fbg / Hb / Ht / Lym / MCH / MCHC / MCV / Mono / Neu / PT / Plat / RBC / Ret / WBC: tissue Blood; for LIVER: tissue Liver; for A/G / ALP / ALT / AST / BUN / CRE / Ca / Cl / DBIL / GLC / IP / K / LDH / Na / PL / RALB / TBIL / TC / TG / TP / gamma-GTP: tissue Plasma

SMILES: C=C(C)[C@H]1Cc2c(ccc3c2O[C@@H]2COc4cc(OC)c(OC)cc4[C@@H]2C3=O)O1 [ROTENONE]
- TERMINAL_BW (3 h): 198.4 g
- APTT (3 h): 15 s
- Bas (3 h): 0%
- Eos (3 h): 1%
- Fbg (3 h): 207.8 mg/dL
- Hb (3 h): 12.6 g/dL
- Ht (3 h): 38.3%
- Lym (3 h): 76.8%
- MCH (3 h): 21 pg
- MCHC (3 h): 33%
- MCV (3 h): 63.7 fL
- Mono (3 h): 5%
- Neu (3 h): 17.6%
- PT (3 h): 12.1 s
- Plat (3 h): 131.6 x10_4/uL
- RBC (3 h): 601.6 x10_4/ul
- Ret (3 h): 9.8%
- WBC (3 h): 98.8 x10_2/uL
- LIVER (3 h): 9.4 g
- A/G (3 h): 2.3
- ALP (3 h): 1432.2 IU/L
- ALT (3 h): 35.8 IU/L
- AST (3 h): 70.6 IU/L
- BUN (3 h): 12.8 mg/dL
- CRE (3 h): 0.3 mg/dL
- Ca (3 h): 11 mg/dL
- Cl (3 h): 104.6 meq/L
- DBIL (3 h): 0.01 mg/dL
- GLC (3 h): 188.2 mg/dL
- IP (3 h): 8.3 mg/dL
- K (3 h): 4.4 meq/L
- LDH (3 h): 80.6 IU/L
- Na (3 h): 140.4 meq/L
- PL (3 h): 139.6 mg/dL
- RALB (3 h): 3.7 g/dL
- TBIL (3 h): 0.04 mg/dL
- TC (3 h): 82.8 mg/dL
- TG (3 h): 61.2 mg/dL
- TP (3 h): 5.3 g/dL
- gamma-GTP (3 h): 1 IU/L
- TERMINAL_BW (6 h): 197 g
- APTT (6 h): 15.9 s
- Bas (6 h): 0%
- Eos (6 h): 1%
- Fbg (6 h): 218 mg/dL
- Hb (6 h): 13.2 g/dL
- Ht (6 h): 40.3%
- Lym (6 h): 72.2%
- MCH (6 h): 21.2 pg
- MCHC (6 h): 32.8%
- MCV (6 h): 64.5 fL
- Mono (6 h): 9%
- Neu (6 h): 17.6%
- PT (6 h): 12.1 s
- Plat (6 h): 122.2 x10_4/uL
- RBC (6 h): 625.8 x10_4/ul
- Ret (6 h): 8.1%
- WBC (6 h): 92.8 x10_2/uL
- LIVER (6 h): 8.7 g
- A/G (6 h): 2.3
- ALP (6 h): 1181 IU/L
- ALT (6 h): 35.4 IU/L
- AST (6 h): 67 IU/L
- BUN (6 h): 9.6 mg/dL
- CRE (6 h): 0.4 mg/dL
- Ca (6 h): 10.9 mg/dL
- Cl (6 h): 103.4 meq/L
- DBIL (6 h): 0.01 mg/dL
- GLC (6 h): 181.8 mg/dL
- IP (6 h): 9 mg/dL
- K (6 h): 4.4 meq/L
- LDH (6 h): 87 IU/L
- Na (6 h): 139.2 meq/L
- PL (6 h): 139.8 mg/dL
- RALB (6 h): 3.8 g/dL
- TBIL (6 h): 0.048 mg/dL
- TC (6 h): 81.8 mg/dL
- TG (6 h): 82.8 mg/dL
- TP (6 h): 5.4 g/dL
- gamma-GTP (6 h): 0.4 IU/L
- TERMINAL_BW (9 h): 190.2 g
- APTT (9 h): 16 s
- Bas (9 h): 0%
- Eos (9 h): 1%
- Fbg (9 h): 209 mg/dL
- Hb (9 h): 13 g/dL
- Ht (9 h): 39.4%
- Lym (9 h): 74.4%
- MCH (9 h): 21.4 pg
- MCHC (9 h): 32.9%
- MCV (9 h): 64.8 fL
- Mono (9 h): 8.4%
- Neu (9 h): 16.6%
- PT (9 h): 12.2 s
- Plat (9 h): 123.2 x10_4/uL
- RBC (9 h): 609 x10_4/ul
- Ret (9 h): 9.2%
- WBC (9 h): 95 x10_2/uL
- LIVER (9 h): 8 g
- A/G (9 h): 2.5
- ALP (9 h): 1388.2 IU/L
- ALT (9 h): 33.6 IU/L
- AST (9 h): 64.4 IU/L
- BUN (9 h): 9.8 mg/dL
- CRE (9 h): 0.3 mg/dL
- Ca (9 h): 11 mg/dL
- Cl (9 h): 104.2 meq/L
- DBIL (9 h): 0.01 mg/dL
- GLC (9 h): 182.2 mg/dL
- IP (9 h): 10.2 mg/dL
- K (9 h): 4.1 meq/L
- LDH (9 h): 74.6 IU/L
- Na (9 h): 140 meq/L
- PL (9 h): 134.2 mg/dL
- RALB (9 h): 3.8 g/dL
- TBIL (9 h): 0.05 mg/dL
- TC (9 h): 81.4 mg/dL
- TG (9 h): 42.2 mg/dL
- TP (9 h): 5.3 g/dL
- gamma-GTP (9 h): 1 IU/L
- TERMINAL_BW (24 h): 212.6 g
- APTT (24 h): 15.6 s
- Bas (24 h): 0%
- Eos (24 h): 1%
- Fbg (24 h): 220.6 mg/dL
- Hb (24 h): 12.6 g/dL
- Ht (24 h): 38.4%
- Lym (24 h): 69%
- MCH (24 h): 21.6 pg
- MCHC (24 h): 32.8%
- MCV (24 h): 65.9 fL
- Mono (24 h): 9.8%
- Neu (24 h): 20%
- PT (24 h): 12 s
- Plat (24 h): 131.2 x10_4/uL
- RBC (24 h): 582.6 x10_4/ul
- Ret (24 h): 8.3%
- WBC (24 h): 108.8 x10_2/uL
- LIVER (24 h): 10.1 g
- A/G (24 h): 2.5
- ALP (24 h): 1476.8 IU/L
- ALT (24 h): 48 IU/L
- AST (24 h): 75.8 IU/L
- BUN (24 h): 18 mg/dL
- CRE (24 h): 0.4 mg/dL
- Ca (24 h): 11.5 mg/dL
- Cl (24 h): 103.8 meq/L
- DBIL (24 h): 0.014 mg/dL
- GLC (24 h): 181.6 mg/dL
- IP (24 h): 7.2 mg/dL
- K (24 h): 4.8 meq/L
- LDH (24 h): 93.8 IU/L
- Na (24 h): 139 meq/L
- PL (24 h): 148.4 mg/dL
- RALB (24 h): 3.9 g/dL
- TBIL (24 h): 0.042 mg/dL
- TC (24 h): 81.2 mg/dL
- TG (24 h): 123.6 mg/dL
- TP (24 h): 5.5 g/dL
- gamma-GTP (24 h): 0.6 IU/L
